We go through 38 molecules from US8962674B2 (Tokyo Institute of Technology, priority 2006, dated 2015).

One may read the melting point as the temperature of the solid-liquid transition. The molecule `COc1ccc([N+](=O)[O-])c(/C=C/C(=O)CC(=O)/C=C/c2ccc(O)cc2)c1` [CU481, (1E,6E)-1-(4-hydroxyphenyl)-7-(5-methoxy-2-nitrophenyl)hepta-1,6-diene-3,5-dione] showed a melting point of 151 to 155 °C.
In turn, `O=C(/C=C/c1ccc(O)cc1)CC(=O)/C=C/c1cccc(-c2ccccc2)c1` [CU504, (1E,6E)-1-(biphenyl-3-yl)-7-(4-hydroxyphenyl)hepta-1,6-diene-3,5-dione] registered a melting point of 176 to 182 °C.
`COc1cc(/C=C/C(=O)CC(=O)/C=C/c2c(OC)cccc2OC)ccc1O` [CU103, (1E,6E)-1-(2,6-dimethoxyphenyl)-7-(4-hydroxy-3-methoxyphenyl)hepta-1,6-diene-3,5-dione] showed a melting point of 136 to 139 °C.
For `COc1cc(/C=C/C(=O)CC(=O)/C=C/c2ccc(O)cc2Cl)ccc1O` [CU129, (1E,6E)-1-(2-chloro-4-hydroxyphenyl)-7-(4-hydroxy-3-methoxyphenyl)hepta-1,6-diene-3,5-dione] the value was 185 to 192 °C.
The figure for `COc1cc(/C=C/C(=O)CC(=O)/C=C/c2ccc(O)c([N+](=O)[O-])c2)ccc1O` [CU040, (1E,6E)-1-(4-hydroxy-3-methoxyphenyl)-7-(4-hydroxy-3-nitrophenyl)hepta-1,6-diene-3,5-dione] is 209 to 213 °C; for `COc1c(O)cccc1/C=C/C(=O)CC(=O)/C=C/c1cccc(O)c1OC` [CU363, (1E,6E)-1,7-bis(3-hydroxy-2-methoxyphenyl)hepta-1,6-diene-3,5-dione] it is 62 to 65 °C; for `COc1ccc(/C=C/C(=O)CC(=O)/C=C/c2ccccc2OC)cc1O` [CU068, (1E,6E)-1-(3-hydroxy-4-methoxyphenyl)-7-(2-methoxyphenyl)hepta-1,6-diene-3,5-dione] it is 102 to 108 °C.
The figure for `O=C(/C=C/c1ccc(O)cc1)CC(=O)/C=C/c1ccc2ccccc2c1-c1ccccc1` [CU503, (1E,6E)-1-(4-hydroxyphenyl)-7-(1-phenylnaphthalen-2-yl)hepta-1,6-diene-3,5-dione] is 218 to 222 °C; for `COc1cc(O)cc(/C=C/C(=O)CC(=O)/C=C/c2ccc(O)cc2)c1` [CU180, (1E,6E)-1-(4-hydroxyphenyl)-7-(3-hydroxy-5-methoxyphenyl)hepta-1,6-diene-3,5-dione] it is 161 to 165 °C.
Consider `CN(C)c1ccc(/C=C/C(=O)CC(=O)CCc2ccc(O)cc2)c(Cl)c1` [CU524, (E)-1-(2-chloro-4-dimethylaminophenyl)-7-(4-hydroxyphenyl)hept-1-ene-3,5-dione], for which the melting point was in the range of 120 to 129 °C.
Take `O=C(/C=C/c1ccc(O)cc1)CC(=O)/C=C/c1cc(O)c(Br)cc1Br` [CU544, (1E,6E)-1-(2,4-dibromo-5-hydroxyphenyl)-7-(4-hydroxyphenyl)hepta-1,6-diene-3,5-dione]: the melting point lay in the range of 255 to 259 °C.
For `COc1cc(/C=C/C(=O)CC(=O)/C=C/c2ccc(O)cc2OC)ccc1O` [CU085, (1E,6E)-1-(4-hydroxy-2-methoxyphenyl)-7-(4-hydroxy-3-methoxyphenyl)hepta-1,6-diene-3,5-dione] the value was 203 to 208 °C.
`COc1cc(/C=C/C(=O)CC(=O)/C=C/c2ccc(O)cc2)cc(OC)c1OC` [CU204, (1E,6E)-1-(4-hydroxyphenyl)-7-(3,4,5-trimethoxyphenyl)hepta-1,6-diene-3,5-dione] showed a melting point of 101 to 105 °C.
`COc1ccc(/C=C/C(=O)CC(=O)/C=C/c2ccc(O)cc2)c(OC)c1` [CU072, (1E,6E)-1-(2,4-dimethoxyphenyl)-7-(4-hydroxyphenyl)hepta-1,6-diene-3,5-dione] registered a melting point of 161 to 167 °C.
The figure for `COc1ccc(/C=C/C(=O)CC(=O)/C=C/c2cccs2)cc1O` [CU212, (1E,6E)-1-(3-hydroxy-4-methoxyphenyl)-7-(thiophen-2-yl)hepta-1,6-diene-3,5-dione] is 128 to 133 °C; for `COc1cc(=O)oc2ccc(/C=C/C(=O)CC(=O)/C=C/c3ccc(O)cc3)cc12` [CU415, (1E,6E)-1-(4-hydroxyphenyl)-7-(4-methoxycoumarin-6-yl)hepta-1,6-diene-3,5-dione] it is 250 to 254 °C; for `CN(C)CCCOc1ccc(/C=C/C(=O)CC(=O)/C=C/c2ccc(O)cc2)cc1` [CU236, (1E,6E)-1-[4-(3-dimethylaminopropoxy)phenyl]-7-(4-hydroxyphenyl)hepta-1,6-diene-3,5-dione] it is 140 to 143 °C.
The figure for `COc1cc(/C=C/C(=O)CC(=O)/C=C/c2c[nH]c3cccc([N+](=O)[O-])c23)ccc1O` [CU462, (1E,6E)-1-(4-hydroxy-3-methoxyphenyl)-7-(4-nitro-1H-indol-3-yl)hepta-1,6-diene-3,5-dione] is 232 to 237 °C.
`COc1ccc(/C=C/C(=O)CC(=O)/C=C/c2cccc(O)c2O)cc1O` [CU265, (1E,6E)-1-(2,3-dihydroxyphenyl)-7-(3-hydroxy-4-methoxyphenyl)hepta-1,6-diene-3,5-dione] gave a melting point of 170 to 172 °C.
Turning to `Cn1cccc1/C=C/C(=O)CC(=O)/C=C/c1ccc(O)cc1` [CU120, (1E,6E)-1-(4-hydroxyphenyl)-7-(1-methyl-1H-pyrrol-2-yl)hepta-1,6-diene-3,5-dione], the melting point is 169 to 173 °C.
For `COc1cc(/C=C/C(=O)CC(=O)/C=C/c2ccc(O)cc2)ccc1N(C)C` [CU048, (1E,6E)-1-(4-dimethylamino-3-methoxyphenyl)-7-(4-hydroxyphenyl)hepta-1,6-diene-3,5-dione] the value was 84 to 86 °C; for `CCN(CC)c1ccc(/C=C/C(=O)CC(=O)/C=C/c2ccc(N(CC)CC)cc2OC(C)C)c(OC(C)C)c1` [CU433, (1E,6E)-1,7-bis(4-diethylamino-2-isopropyloxyphenyl)hepta-1,6-diene-3,5-dione], 63 to 66 °C.
For `COc1cc(/C=C/C(=O)CC(=O)/C=C/c2cccnc2)ccc1O` [CU024, (1E,6E)-1-(4-hydroxy-3-methoxyphenyl)-7-(pyridin-3-yl)hepta-1,6-diene-3,5-dione] the value was 176 to 179 °C; for `COCOc1cccc(O)c1/C=C/C(=O)CC(=O)/C=C/c1ccc(O)c(OC)c1` [CU259, (1E,6E)-1-[2-hydroxy-6-(methoxymethoxy)phenyl]-7-(4-hydroxy-3-methoxyphenyl)hepta-1,6-diene-3,5-dione], 76 to 81 °C.
On to `COc1ccc(O)c(/C=C/C(=O)CC(=O)/C=C/c2ccc(O)cc2)c1` [CU253, (1E,6E)-1-(2-hydroxy-5-methoxyphenyl)-7-(4-hydroxyphenyl)hepta-1,6-diene-3,5-dione], for which the melting point is 167 to 170 °C.
For `CCN(CC)c1ccc(/C=C/C(=O)CC(=O)/C=C/c2ccc(O)c(OC)c2)c(O)c1` [CU277, (1E,6E)-1-(4-diethylamino-2-hydroxyphenyl)-7-(4-hydroxy-3-methoxyphenyl)hepta-1,6-diene-3,5-dione] the value was 89 to 92 °C; for `CCN(CC)c1ccc(/C=C/C(=O)CC(=O)/C=C/c2ccc(O)c(OC)c2)c(OCc2ccccc2)c1` [CU437, (1E,6E)-1-(2-benzyloxy-4-diethylaminophenyl)-7-(4-hydroxy-3-methoxyphenyl)hepta-1,6-diene-3,5-dione], 60 to 65 °C.
For `COc1ccc(/C=C/C(=O)CC(=O)/C=C/c2cccc(OC)c2O)cc1O` [CU273, (1E,6E)-1-(2-hydroxy-3-methoxyphenyl)-7-(3-hydroxy-4-methoxyphenyl)hepta-1,6-diene-3,5-dione] the value was 155 to 157 °C.
The figure for `COc1ccc(/C=C/C(=O)CC(=O)/C=C/c2ccc(O)cc2O)cc1O` [CU258, (1E,6E)-1-(2,4-dihydroxyphenyl)-7-(3-hydroxy-4-methoxyphenyl)hepta-1,6-diene-3,5-dione] is 104 to 109 °C; for `COc1cc(/C=C/C(=O)CC(=O)/C=C/c2ccc([N+](=O)[O-])c(OC)c2)ccc1O` [CU051, (1E,6E)-1-(4-hydroxy-3-methoxyphenyl)-7-(3-methoxy-4-nitrophenyl)hepta-1,6-diene-3,5-dione] it is 157 to 163 °C.
As to `Cc1ccc(Oc2ccc(/C=C/C(=O)CC(=O)/C=C/c3ccc(Oc4ccc(C)cc4)nc3)cn2)cc1` [CU378, (1E,6E)-1,7-bis[6-(4-methylphenoxy)pyridin-3-yl]hepta-1,6-diene-3,5-dione], the melting point lay within 185 to 190 °C.
In turn, `O=C(/C=C/c1ccc(O)cc1)CC(=O)/C=C/c1ccc2[nH]nnc2c1` [CU346, (1E,6E)-1-(1H-benzotriazol-5-yl)-7-(4-hydroxyphenyl)hepta-1,6-diene-3,5-dione] showed a melting point of 211 to 216 °C.
For `CN(C)c1ccc(/C=C/C(=O)CC(=O)CCc2ccc(O)cc2)c2ccccc12` [CU518, (E)-1-(4-dimethylaminonaphthalen-1-yl)-7-(4-hydroxyphenyl)hept-1-ene-3,5-dione] the value was 44 to 49 °C; for `COc1ccc(/C=C/C(=O)CC(=O)/C=C/c2ccc(OC)c(O)c2)cc1` [CU065, (1E,6E)-1-(3-hydroxy-4-methoxyphenyl)-7-(4-methoxyphenyl)hepta-1,6-diene-3,5-dione], 137 to 140 °C; for `CN(C)c1ccc(/C=C/C(=O)CC(=O)/C=C/c2ccc(O)cc2)c2ccccc12` [CU119, (1E,6E)-1-(4-dimethylaminonaphthalen-1-yl)-7-(4-hydroxyphenyl)hepta-1,6-diene-3,5-dione], 82 to 86 °C.
The figure for `COc1ccc(/C=C/C(=O)CC(=O)/C=C/c2ccc3ccn(Cc4ccccc4)c3c2)cc1O` [CU444, (1E,6E)-1-(1-benzyl-1H-indol-6-yl)-7-(3-hydroxy-4-methoxyphenyl)hepta-1,6-diene-3,5-dione] is 190 to 194 °C.
The molecule `COc1ccc(/C=C/C(=O)CC(=O)/C=C/c2cccc3cccnc23)cc1O` [CU454, (1E,6E)-1-(3-hydroxy-4-methoxyphenyl)-7-(quinolin-8-yl)hepta-1,6-diene-3,5-dione] showed a melting point of 80 to 85 °C.
Take `O=C(/C=C/c1ccc(O)cc1)CC(=O)/C=C/c1cccnc1N1CCOCC1` [CU337, (1E,6E)-1-(4-hydroxyphenyl)-7-(2-morpholinopyridin-3-yl)hepta-1,6-diene-3,5-dione]: the melting point lay within 159 to 165 °C.
